{"source": "patent US20250221965A1", "about": "“THERAPEUTIC AGENT FOR RESPIRATORY DISEASE” (THE JIKEI UNIVERSITY, priority 2022, published 2025)", "key": {"[1]": {"test_system": "TFEB expression in cultured human airway epithelial cells (BEAS2B)", "experiment": "Induction of TFEB expression in human airway epithelial cell", "type": "cell-based", "conditions": "24 hours", "experimental": "The effect of pemafibrate was examined with reference to a procedure described in a literature ([…], et al.: Autophagy (2019), 15(3): 510). That is, cultured human airway epithelial cells (BEAS2B) were cultured in a culture medium supplemented with 10 nM or 100 nM of pemafibrate for 24 hours, and were compared to a control (0 nM)."}, "[2]": {"test_system": "p21 expression in human-derived cultured airway epithelial cells (HBEC) with cigarette smoke extract", "experiment": "Action on smoking stimulation-induced cell senescence (p21 expression)", "type": "cell-based", "conditions": "24 hours", "experimental": "The effect of pemafibrate was examined with reference to a procedure described in a literature (Saito N, et al.: J Immunol (2019), 202: 1428). That is, human-derived cultured airway epithelial cells (HBEC) were cultured in a culture medium supplemented with 10 nM to 100 nM of pemafibrate together with 1% cigarette smoke extract (CSE) for 24 hours, and were compared to a control (0 nM)."}, "[3]": {"test_system": "cigarette smoke-exposed COPD model", "experiment": "Cigarette smoke-exposed COPD model", "type": "in vivo, C57BL/6J mice", "description": "The effect of pemafibrate was examined with reference to a procedure described in a literature ([…], et al.: Autophagy (2019), 15(3): 510)). That is, C57BL/6J mice were exposed to cigarette smoke with an exposure and inhalation system for small animals five times a week for 6 months. The mice were classified into a total of 4 groups as follows: the mice were classified into a normal diet group (Ctrl) and a 0.0003 w/w % pemafibrate mixed feed group (Pema), and the groups were each further classified into a room air group (RA) and a cigarette smoke exposure group (CS). First, a lung after the completion of the administration of pemafibrate was removed from the room air group (RA), and was evaluated for the expression of TFEB by being homogenized. […] Next, a bronchoalveolar lavage fluid was collected and evaluated for its cells. […] In addition, an alveolar diameter was measured and the degree of emphysema was evaluated."}}}
{"smiles": "CC[C@@H](Oc1cccc(CN(CCCOc2ccc(OC)cc2)c2nc3ccccc3o2)c1)C(=O)O", "note": "[pemafibrate, (R)-2-[3-[[N-(benzoxazol-2-yl)-N-3-(4-methoxyphenoxy)propyl]aminomethyl]phenoxy]butyric acid]", "values": [{"measurement": "expression of TFEB", "setting": "[1]; 10 nM or 100 nM pemafibrate, vs control (0 nM), FIG. 1", "result": "increased in a manner dependent on the dose"}, {"measurement": "ratio of the expression amount of TFEB to the expression amount of ACTB", "setting": "[1]; 10 nM or 100 nM, vs control, p<0.05", "result": "a significant difference was observed as compared to the control"}, {"measurement": "expression of p21 increased by CSE stimulation", "setting": "[2]; 10 nM to 100 nM pemafibrate with 1% CSE, FIG. 2", "result": "suppressed by pemafibrate in a dose-dependent manner"}, {"measurement": "suppressing action on cell senescence", "setting": "[2]; 1% CSE", "result": "had a suppressing action on cell senescence"}, {"measurement": "pemafibrate concentration giving significant difference in ratio of p21 to ACTB expression vs control", "setting": "[2]; 1% CSE, p<0.05", "result": "≥ 20", "unit": "nM"}, {"measurement": "destruction of lung structure (alveolar diameter, degree of emphysema)", "setting": "[3]; cigarette smoke exposure (CS) 6 months, 0.0003 w/w % mixed feed, FIG. 5 and 6", "result": "the destruction of a lung structure due to the cigarette smoke exposure (CS) was suppressed"}, {"measurement": "cell senescence due to cigarette smoke exposure", "setting": "[3]; cigarette smoke exposure (CS) 6 months, 0.0003 w/w % mixed feed, FIG. 7", "result": "the cell senescence due to the cigarette smoke exposure (CS) was suppressed"}, {"measurement": "expression of TFEB in lung homogenate", "setting": "[3]; room air group (RA), 0.0003 w/w % pemafibrate mixed feed, 6 months, FIG. 3", "result": "an increase in expression of TFEB was observed"}]}
